Reference: patent US20210267983A1, “COMBINATIONS OF PPAR AGONISTS AND P38 KINASE INHIBITORS FOR PREVENTING OR TREATING FIBROTIC DISEASES” (KINARUS AG, priority 2018, published 2021)

Experiments:
[1] = cited from earlier work; for reduction of the rate of decline in lung function: patients with IPF; for adverse events / side effects: treatment of IPF
[2] = system: bleomycin-induced pulmonary fibrosis; assay: 21-day model of bleomycin-induced pulmonary fibrosis in mice; type: in vivo; settings: day 21, oral gavage QD, 25 mg/kg pioglitazone, 100 mg/kg pamapimod, alone or in combination, p<0.05, t test; for lung weights normalized to body weights: vs. group 2 (bleomycin + vehicle); for fibrosis, group mean fibrotic index (modified Ashcroft score): vs. group 2 (fibrotic index 4.8)
Procedure: Male C57BL/6 mice, six to seven weeks of age, were used for this study. Animals were weighed one day prior to study initiation and 60 animals were randomized into 6 groups (N=10/group) such that mean body weights were similar for the different groups. Food and water were provided ad libitum, with a 12-hour light/dark cycle.
Treatment in groups 2-6 was initiated one day prior to bleomycin administration and continued though to the study end on day 21. On day -1, animals were dosed via oral gavage with vehicle control (0.5% methylcellulose; group 1 and group 2), pioglitazone at 25 mg/kg/dose (group 3), pamapimod at 100 mg/kg/dose (group 4), pioglitazone at 25 mg/kg/dose and pamapimod at 100 mg/kg/dose (group 5), pirfenidone at 100mg/kg/dose (group 6) and continued for 21 days. Pioglitazone and pamapimod were dosed once daily (QD) and pirfenidone was dosed twice daily (BID). On day 0, all mice in groups 2-6 received a single instillation of bleomycin to induce pulmonary fibrosis. Animals in group 1 (dosed with vehicle from days-1 to 21) were not instilled with bleomycin, but instead received a single dose of saline, and were considered sham negative control mice. Final drug treatments were administered 2-4 hours prior to study termination on day 21.
Body weights, absolute lung weights, and lung weights normalized to body weights were measured for all mice on day 21 after bleomycin instillation, and were compared to bleomycin-instilled vehicle treated control mice. The post-caval lobes from the right lung were collected and snap frozen. The remaining lungs were fixed in 10% NBF and underwent histopathology analysis and evaluated for eseverity of fibrosis using a modified Ashcroft score.
Vehicle (0.5% methylcellulose) and compounds were prepared weekly and stored at room temperature in the dark. All mice were dosed starting on day-1 until study termination on day 21 with a volume of 200 μl of vehicle or test compounds QD by oral gavage or 100 μl of pirfenidone BID by oral gavage. For groups receiving both pirfenidone and test compounds, pirfenidone was dosed 100 μl BID and test compounds were delivered in a total volume of 100 μl QD. […]
The lung samples were processed and embedded with all lobes from each mouse in one paraffin block. […] A modified Ashcroft score (Hubner et al., 2008) was recorded for each field. The fibrotic index was calculated as the sum of the modified Ashcroft field scores divided by the number of fields examined. […]
Endpoint data on day 21 is shown as the average Ashcroft score per experimental group, with standard error of the mean (SEM). Statistical differences (defined as p<0.05) between groups were analyzed using t-tests in Prism version 7.0 software (GraphPad, La Jolla, Calif.). […]

[3] = system: cytokines and chemokines of the interleukin, TNF, C-C and C-X-C motif families; settings: for adjusted significance (p) value, C-C Motif Chemokine Ligand 2 (Ccl2) / adjusted significance (p) value, C-C Motif Chemokine Ligand 3 (Ccl3) / adjusted significance (p) value, C-C Motif Chemokine Ligand 4 (Ccl4) / adjusted significance (p) value, C-C Motif Chemokine Ligand 7 (Ccl7) / adjusted significance (p) value, C-C Motif Chemokine Ligand 8 (Ccl8) / adjusted significance (p) value, C-C Motif Chemokine Ligand 12 (Ccl12) / adjusted significance (p) value, C-C Motif Chemokine Ligand 24 (Ccl24) / adjusted significance (p) value, C-X-C Motif Chemokine Ligand 3 (Cxcl3) / adjusted significance (p) value, C-X-C Motif Chemokine Ligand 5 (Cxcl5) / adjusted significance (p) value, C-X-C Motif Chemokine Ligand 10 (Cxcl10) / adjusted significance (p) value, Interleukin 6 (IL6) / adjusted significance (p) value, Interleukin 11 (IL11) / adjusted significance (p) value, Interleukin 12B (IL12b) / adjusted significance (p) value, Interleukin 18 Receptor 1 (IL18r1) / adjusted significance (p) value, TNF Receptor Superfamily Member 10b (Tnfrsf10b) / adjusted significance (p) value, TNF Receptor Superfamily Member 11b (Tnfrsf11b) / adjusted significance (p) value, TNF Superfamily Member 9 (Tnfsf9) / adjusted significance (p) value, TNF Superfamily Member 18 (Tnfsf18) / adjusted significance (p) value, Interleukin 36 Gamma (IL1f9) / adjusted significance (p) value, TNF Superfamily Member 15 (Tnfsf15): lung expression vs bleomycin alone group; for adjusted significance (p) value, C-C Motif Chemokine Ligand 2 (Ccl2) / adjusted significance (p) value, C-C Motif Chemokine Ligand 3 (Ccl3) / adjusted significance (p) value, C-C Motif Chemokine Ligand 4 (Ccl4) / adjusted significance (p) value, C-C Motif Chemokine Ligand 7 (Ccl7) / adjusted significance (p) value, C-C Motif Chemokine Ligand 8 (Ccl8) / adjusted significance (p) value, C-C Motif Chemokine Ligand 12 (Ccl12) / adjusted significance (p) value, C-C Motif Chemokine Ligand 24 (Ccl24) / adjusted significance (p) value, C-X-C Motif Chemokine Ligand 3 (Cxcl3) / adjusted significance (p) value, C-X-C Motif Chemokine Ligand 5 (Cxcl5) / adjusted significance (p) value, C-X-C Motif Chemokine Ligand 10 (Cxcl10) / adjusted significance (p) value, Interleukin 6 (IL6) / adjusted significance (p) value, Interleukin 11 (IL11) / adjusted significance (p) value, Interleukin 12B (IL12b) / adjusted significance (p) value, Interleukin 18 Receptor 1 (IL18r1) / adjusted significance (p) value, TNF Receptor Superfamily Member 10b (Tnfrsf10b) / adjusted significance (p) value, TNF Receptor Superfamily Member 11b (Tnfrsf11b) / adjusted significance (p) value, TNF Superfamily Member 9 (Tnfsf9) / adjusted significance (p) value, TNF Superfamily Member 18 (Tnfsf18): Direction: downregulated; for adjusted significance (p) value, Interleukin 36 Gamma (IL1f9) / adjusted significance (p) value, TNF Superfamily Member 15 (Tnfsf15): Direction: upregulated; for regulation of expression of members of the interleukin/interleukin receptor, TNF/TNF receptor, C-C and C-X-C motif chemokine families: lung, vs bleomycin alone disease group, significant = adjusted p value <0.10
Procedure: Global gene expression changes were determined by Illumina Next Generation RNA sequencing in lung samples from the animal study described in Example 1. RNA was extracted from the post caval lobe that had been snap frozen at the termination of the study. For this analysis, 8 samples from each of treatment groups 1-6 (total 48 samples) were analysed. Briefly, total RNA was extracted for next generation sequencing using standard methods, then Illumina TruSeq RNA libraries including poly(A) enrichment were prepared. Sequencing was performed on an Illumina NextSeq 500, v2, high output, 1×75 bp reads with 30 Mio packages. Demultiplexing and trimming of Illumina adaptor residuals was performed on the raw data. Mapping of data reads was made using the reference mouse genome mm10. For bioinformatics analysis, the average expression level and standard deviations were determined for each gene for the 8 replicates per treatment group. Pairwise comparisons between groups were then performed to identify differentially expressed genes. Absolute p-values and adjusted p-values, to correct for multiplicity of testing, were calculated for each pairwise analysis.

SMILES	reduction of the rate of decline in lung function [1]	adverse events / side effects [1]	lung weights normalized to body weights [2]	fibrosis, group mean fibrotic index (modified Ashcroft score) [2]	adjusted significance (p) value, C-C Motif Chemokine Ligand 2 (Ccl2) [3]	adjusted significance (p) value, C-C Motif Chemokine Ligand 3 (Ccl3) [3]	adjusted significance (p) value, C-C Motif Chemokine Ligand 4 (Ccl4) [3]	adjusted significance (p) value, C-C Motif Chemokine Ligand 7 (Ccl7) [3]	adjusted significance (p) value, C-C Motif Chemokine Ligand 8 (Ccl8) [3]	adjusted significance (p) value, C-C Motif Chemokine Ligand 12 (Ccl12) [3]	adjusted significance (p) value, C-C Motif Chemokine Ligand 24 (Ccl24) [3]	adjusted significance (p) value, C-X-C Motif Chemokine Ligand 3 (Cxcl3) [3]	adjusted significance (p) value, C-X-C Motif Chemokine Ligand 5 (Cxcl5) [3]	adjusted significance (p) value, C-X-C Motif Chemokine Ligand 10 (Cxcl10) [3]	adjusted significance (p) value, Interleukin 6 (IL6) [3]	adjusted significance (p) value, Interleukin 11 (IL11) [3]	adjusted significance (p) value, Interleukin 12B (IL12b) [3]	adjusted significance (p) value, Interleukin 18 Receptor 1 (IL18r1) [3]	adjusted significance (p) value, TNF Receptor Superfamily Member 10b (Tnfrsf10b) [3]	adjusted significance (p) value, TNF Receptor Superfamily Member 11b (Tnfrsf11b) [3]	further results
Cc1ccc(=O)n(-c2ccccc2)c1 [pirfenidone, Pirfenidone]	approximately 50%	significant side effects	–	–	–	–	–	–	–	–	–	–	–	–	–	–	–	–	–	–	–
COC(=O)c1ccc2c(c1)NC(=O)/C2=C(\Nc1ccc(N(C)C(=O)CN2CCN(C)CC2)cc1)c1ccccc1 [nintedanib, Nintedanib]	approximately 50%	significant systemic adverse events	–	–	–	–	–	–	–	–	–	–	–	–	–	–	–	–	–	–	–
Cn1c(=O)c(Oc2ccc(F)cc2F)cc2cnc(NC(CCO)CCO)nc21 [Pamapimod, 6-(2,4-Difluorophenoxy)-2-[3-hydroxy-1-(2-hydroxyethyl)-propylamino]-8-methyl-8H-pyrido[2,3-d]pyrimidin-7-one]	–	–	Substantially lower normalized lung weights	Substantially less fibrosis	NS (NS = adjusted p value > 0.10)	NS (NS = adjusted p value > 0.10)	0.042	NS (NS = adjusted p value > 0.10)	NS (NS = adjusted p value > 0.10)	NS (NS = adjusted p value > 0.10)	0.032	NS (NS = adjusted p value > 0.10)	NS (NS = adjusted p value > 0.10)	NS (NS = adjusted p value > 0.10)	NS (NS = adjusted p value > 0.10)	NS (NS = adjusted p value > 0.10)	0.023	NS (NS = adjusted p value > 0.10)	NS (NS = adjusted p value > 0.10)	NS (NS = adjusted p value > 0.10)	adjusted significance (p) value, TNF Superfamily Member 9 (Tnfsf9) [3]: NS (NS = adjusted p value > 0.10); adjusted significance (p) value, TNF Superfamily Member 18 (Tnfsf18) [3]: NS (NS = adjusted p value > 0.10); adjusted significance (p) value, Interleukin 36 Gamma (IL1f9) [3]: NS (NS = adjusted p value > 0.10); adjusted significance (p) value, TNF Superfamily Member 15 (Tnfsf15) [3]: 0.0079; regulation of expression of members of the interleukin/interleukin receptor, TNF/TNF receptor, C-C and C-X-C motif chemokine families [3]: Neither pioglitazone or pamapimod single treatments significantly regulated expression
CCc1ccc(CCOc2ccc(CC3SC(=O)NC3=O)cc2)nc1 (centres unmarked) [Pioglitazone]	–	–	Substantially lower normalized lung weights	Substantially less fibrosis	NS (NS = adjusted p value > 0.10)	NS (NS = adjusted p value > 0.10)	NS (NS = adjusted p value > 0.10)	NS (NS = adjusted p value > 0.10)	NS (NS = adjusted p value > 0.10)	NS (NS = adjusted p value > 0.10)	NS (NS = adjusted p value > 0.10)	NS (NS = adjusted p value > 0.10)	NS (NS = adjusted p value > 0.10)	NS (NS = adjusted p value > 0.10)	NS (NS = adjusted p value > 0.10)	NS (NS = adjusted p value > 0.10)	NS (NS = adjusted p value > 0.10)	NS (NS = adjusted p value > 0.10)	NS (NS = adjusted p value > 0.10)	NS (NS = adjusted p value > 0.10)	adjusted significance (p) value, TNF Superfamily Member 9 (Tnfsf9) [3]: NS (NS = adjusted p value > 0.10); adjusted significance (p) value, TNF Superfamily Member 18 (Tnfsf18) [3]: NS (NS = adjusted p value > 0.10); adjusted significance (p) value, Interleukin 36 Gamma (IL1f9) [3]: NS (NS = adjusted p value > 0.10); adjusted significance (p) value, TNF Superfamily Member 15 (Tnfsf15) [3]: NS (NS = adjusted p value > 0.10); regulation of expression of members of the interleukin/interleukin receptor, TNF/TNF receptor, C-C and C-X-C motif chemokine families [3]: Neither pioglitazone or pamapimod single treatments significantly regulated expression
